The values that follow come from patent US11098010B2 (priority 2017, dated 2021).

Counter-ions that a name gives are not always drawn. A value given as a limit tells only on which side of the number the result lay.

One assay deals with HBV rcDNA in HepDE19 cells. Description: HepDE19 assay with bDNA quantitation of HBV rcDNA. Particulars: HepDE19 cells, inhibition of rcDNA formation, 7 day incubation, top concentration 25 μM; read-out: DE-19 bDNA EC50. The assay is classed as cell-based, hepatitis B virus (HBV).
`COC(=O)NC1c2c(F)ccc(C(=O)Nc3ccc(F)c(Cl)c3)c2CC1(C)C` (stereo not drawn) [Compound 121, O-Methyl, N-(4-((3-chloro-4-fluorophenyl)carbamoyl)-7-fluoro-2,2-dimethyl-2,3-dihydro-1H-inden-1-yl) carbamate]: the EC50 is greater than 25 µM.

Consider `COC(=O)NC1c2c(F)ccc(C(=O)Nc3ccc(F)c(Cl)c3)c2CC1(C)C` (stereo not drawn) [Compound 122, O-Methyl, N-(4-((3-chloro-4-fluorophenyl)carbamoyl)-7-fluoro-2,2-dimethyl-2,3-dihydro-1H-inden-1-yl) carbamate], for which the EC50 is 0.47 µM.

Staying with this assay, now noted: Hepatitis B virus, HepDE19, 168 h, HepDE19 cells, inhibition of rcDNA formation, 7 day incubation, top concentration 25 μM; read-out: DE-19 bDNA EC50.
For the molecule `COC(=O)O[C@H]1CCc2c(C(=O)Nc3ccc(F)c(Cl)c3)ccc(F)c21` [Compound 123, (S)-4-(3-Chloro-4-fluorophenylcarbamoyl)-7-fluoro-2,3-dihydro-1H-inden-1-yl Methyl Carbonate], the EC50 turned out to be 0.76 µM.

With `O=C(N[C@H]1CCc2c(C(=O)Nc3ccc(F)c(Cl)c3)ccc(F)c21)OCc1cscn1` [Compound 124, O-Thiazol-4-ylmethyl, N—(S)-(4-((3-chloro-4-fluorophenyl)carbamoyl)-7-fluoro-2,3-dihydro-1H-inden-1-yl) carbamate], the EC50 is 0.06 µM.

For `O=C(N[C@H]1CCc2c(C(=O)Nc3ccc(F)c(Cl)c3)ccc(F)c21)c1nccs1` [Compound 127, (S)—N-(4-((3-Chloro-4-fluorophenyl)carbamoyl)-7-fluoro-2,3-dihydro-1H-inden-1-yl)thiazole-2-carboxamide], the EC50 came out at 0.36 µM.

Regarding `O=C(Nc1ccc(F)c(Cl)c1)c1ccc(F)c2c1CC[C@@H]2NS(=O)(=O)C1CC1` [Compound 128, (S)—N-(3-Chloro-4-fluorophenyl)-1-(cyclopropanesulfonamido)-7-fluoro-2,3-dihydro-1H-indene-4-carboxamide], the EC50 amounted to 0.04 µM.

Consider `O=C(N[C@H]1CCc2c(C(=O)Nc3ccc(F)c(Cl)c3)ccc(F)c21)c1cnco1` [Compound 129, (S)—N-(4-((3-Chloro-4-fluorophenyl)carbamoyl)-7-fluoro-2,3-dihydro-1H-inden-1-yl)oxazole-5-carboxamide], for which the EC50 was found to be 0.41 µM.

In the case of `O=C(N[C@H]1CCc2c(C(=O)Nc3ccc(F)c(Cl)c3)ccc(F)c21)OC1CCCC1` [Compound 131, O-Cyclopentyl, N—(S)-(4-((3-chloro-4-fluorophenyl)carbamoyl)-7-fluoro-2,3-dihydro-1H-inden-1-yl)carbamate], the EC50 was determined as 0.59 µM.

On to `Cn1ccnc1COC(=O)N[C@H]1CCc2c(C(=O)Nc3ccc(F)c(Cl)c3)ccc(F)c21` [Compound 137, O-(1-Methyl-1H-imidazol-2-yl)methyl, N—(S)-(4-((3-chloro-4-fluorophenyl)carbamoyl)-7-fluoro-2,3-dihydro-1H-inden-1-yl) carbamate], for which the EC50 amounted to 0.1 µM.

As to `O=C(N[C@H]1CCc2c(C(=O)Nc3ccc(F)c(Cl)c3)ccc(F)c21)OCCO` [Compound 141, O-2-Hydroxyethyl, N—(S)-(4-((3-chloro-4-fluorophenyl)carbamoyl)-7-fluoro-2,3-dihydro-1H-inden-1-yl) carbamate], the EC50 is 0.18 µM.

For `O=C(CO)N[C@H]1CCc2c(C(=O)Nc3ccc(F)c(Cl)c3)ccc(F)c21` [Compound 143, (S)—N-(3-Chloro-4-fluorophenyl)-7-fluoro-1-(2-hydroxyacetamido)-2,3-dihydro-1H-indene-4-carboxamide], the EC50 amounted to 1.5 µM.

Take `N#Cc1cccc(COC(=O)N[C@H]2CCc3c(C(=O)Nc4ccc(F)c(Cl)c4)ccc(F)c32)n1` [Compound 150, O-(6-Cyanopyridin-2-yl)methyl, N—(S)-(4-((3-chloro-4-fluorophenyl)carbamoyl)-7-fluoro-2,3-dihydro-1H-inden-1-yl)carbamate]: the EC50 worked out at 0.15 µM.

Still in this assay, the particulars now being: Hepatitis B virus, HepDE19, 168 h, read-out: DE-19 bDNA EC50 (μM), HepDE19 cells, inhibition of rcDNA formation, 7 day incubation, top concentration 25 μM.
On to `O=C(N[C@H]1CCc2c(C(=O)Nc3ccc(F)c(Cl)c3)ccc(F)c21)OCCCn1ccnc1` [Compound 125, O-3-(1H-Imidazol-1-yl)propyl, N—(S)-(4-((3-chloro-4-fluorophenyl)carbamoyl)-7-fluoro-2,3-dihydro-1H-inden-1-yl) carbamate Hydrochloride], for which the EC50 was determined as 0.28 µM.

With `N#Cc1cc(NC(=O)c2ccc(F)c3c2CC[C@@H]3NC(=O)OCc2ccccn2)ccc1F` [Compound 126, O-Pyridin-2-ylmethyl, N—(S)-(4-((3-cyano-4-fluorophenyl)carbamoyl)-7-fluoro-2,3-dihydro-1H-inden-1-yl)carbamate Hydrochloride], the EC50 worked out at 0.24 µM.

On to `COC(=O)N[C@@H]1c2cccc(C(=O)Nc3ccc(F)c(Cl)c3)c2C[C@H]1OC` [Compound 130, O-Methyl, N-((1R,2R)-4-((3-chloro-4-fluorophenyl)carbamoyl)-2-methoxy-2,3-dihydro-1H-inden-1-yl)carbamate], for which the EC50 stood at 0.1 µM.

Regarding `O=C(N[C@H]1CCc2c(C(=O)Nc3ccc(F)c(Cl)c3)ccc(F)c21)OCC1CNC(=O)O1` (stereo partly drawn) [Compound 132, O-(2-Oxooxazolidin-5-yl)methyl, N—((S)-4-((3-chloro-4-fluorophenyl)carbamoyl)-7-fluoro-2,3-dihydro-1H-inden-1-yl) carbamate], the EC50 was 0.22 µM.

Take `O=C(N[C@H]1CCc2c(C(=O)Nc3ccc(F)c(Cl)c3)ccc(F)c21)OCCn1cccn1` [Compound 133, O-2-(1H-Pyrazol-1-yl)ethyl, N—(S)-(4-((3-chloro-4-fluorophenyl)carbamoyl)-7-fluoro-2,3-dihydro-1H-inden-1-yl) carbamate]: the EC50 was found to be 0.15 µM.

Consider `O=C(N[C@H]1CCc2c(C(=O)Nc3ccc(F)c(Cl)c3)ccc(F)c21)OCc1ncccc1F` [Compound 138, O-(3-Fluoropyridin-2-yl)methyl, N—(S)-(4-((3-chloro-4-fluorophenyl)carbamoyl)-7-fluoro-2,3-dihydro-1H-inden-1-yl) carbamate], for which the EC50 was 0.16 µM.

As to `O=C(N[C@H]1CCc2c(C(=O)Nc3ccc(F)c(Cl)c3)ccc(F)c21)OC[C@H]1COCCN1` [Compound 139, O—((R)-Morpholin-3-yl)methyl, N—((S)-4-((3-chloro-4-fluorophenyl)carbamoyl)-7-fluoro-2,3-dihydro-1H-inden-1-yl) carbamate Hydrochloride], the EC50 worked out at 0.62 µM.

`COc1ccnc(COC(=O)N[C@H]2CCc3c(C(=O)Nc4ccc(F)c(Cl)c4)ccc(F)c32)c1` [Compound 140, O-(4-Methoxypyridin-2-yl)methyl, N—(S)-(4-((3-chloro-4-fluorophenyl)carbamoyl)-7-fluoro-2,3-dihydro-1H-inden-1-yl) carbamate]: the EC50 was determined as 0.22 µM.

`O=C(N[C@H]1CCc2c(C(=O)Nc3ccc(F)c(Cl)c3)ccc(F)c21)OC[C@@H]1CCCO1` [Compound 142, O—((S)-Tetrahydrofuran-2-yl)methyl, N—((S)-4-((3-chloro-4-fluorophenyl)carbamoyl)-7-fluoro-2,3-dihydro-1H-inden-1-yl) carbamate]: the EC50 stood at 0.27 µM.

As to `O=C(Nc1cccnc1)N[C@H]1CCc2c(C(=O)Nc3ccc(F)c(Cl)c3)ccc(F)c21` [Compound 144, (S)—N-(3-Chloro-4-fluorophenyl)-7-fluoro-1-(3-(pyridin-3-yl)ureido)-2,3-dihydro-1H-indene-4-carboxamide], the EC50 turned out to be 0.85 µM.

As for `O=C(Nc1ccncc1)N[C@H]1CCc2c(C(=O)Nc3ccc(F)c(Cl)c3)ccc(F)c21` [Compound 145, (S)—N-(3-Chloro-4-fluorophenyl)-7-fluoro-1-(3-(pyridin-4-yl)ureido)-2,3-dihydro-1H-indene-4-carboxamide], the EC50 worked out at 0.93 µM.

In the case of `O=C(Nc1ccc(F)c(Cl)c1)c1ccc(F)c2c1CC[C@@H]2Nc1nccs1` [Compound 146, (S)—N-(3-Chloro-4-fluorophenyl)-7-fluoro-1-(thiazol-2-ylamino)-2,3-dihydro-1H-indene-4-carboxamide], the EC50 was determined as 0.24 µM.

Regarding `O=C(N[C@H]1CCc2c(C(=O)Nc3ccc(F)c(Cl)c3)ccc(F)c21)OCCN1CCCCC1` [Compound 147, O-2-(Piperidin-1-yl)ethyl, N—(S)-(4-((3-chloro-4-fluorophenyl)carbamoyl)-7-fluoro-2,3-dihydro-1H-inden-1-yl) carbamate], the EC50 worked out at 1.1 µM.

As for `O=C(N[C@H]1CCc2c(C(=O)Nc3ccc(F)c(C(F)F)c3)ccc(F)c21)OCc1ccccn1` [Compound 148, O-Pyridin-2-ylmethyl, N—(S)-(4-((3-(difluoromethyl)-4-fluorophenyl)carbamoyl)-7-fluoro-2,3-dihydro-1H-inden-1-yl)carbamate Hydrochloride], the EC50 was determined as 0.12 µM.

With `O=C(NCc1ccccn1)N[C@H]1CCc2c(C(=O)Nc3ccc(F)c(Cl)c3)ccc(F)c21` [Compound 149, (S)—N-(3-chloro-4-fluorophenyl)-7-fluoro-1-(3-(pyridin-2-ylmethyl)ureido)-2,3-dihydro-1H-indene-4-carboxamide Hydrochloride], the EC50 was found to be 0.21 µM.

`O=C(N[C@H]1CCc2c(C(=O)Nc3ccc(F)c(Cl)c3)ccc(F)c21)OCc1ccc2ccccc2n1` [Compound 151, O-Quinolin-2-ylmethyl, N—(S)-(4-((3-chloro-4-fluorophenyl)carbamoyl)-7-fluoro-2,3-dihydro-1H-inden-1-yl) carbamate]: the EC50 was determined as 0.41 µM.

The same assay, now with this note: read-out: DE-19 bDNA EC50; HepDE19 cells, inhibition of rcDNA formation, 7 day incubation, top concentration 25 μM.
Turning to `CC1(C)Cc2c(C(=O)Nc3ccc(F)c(Cl)c3)ccc(F)c2C1NC(=O)OCc1ccccn1` (stereo not drawn) [Compound 135, O-Pyridin-2-ylmethyl, N-(4-((3-chloro-4-fluorophenyl)carbamoyl)-7-fluoro-2,2-dimethyl-2,3-dihydro-1H-inden-1-yl) carbamate], the EC50 turned out to be 8.4 µM.

Turning to `CC1(C)Cc2c(C(=O)Nc3ccc(F)c(Cl)c3)ccc(F)c2C1NC(=O)OCc1ccccn1` (stereo not drawn) [Compound 136, O-Pyridin-2-ylmethyl, N-(4-((3-chloro-4-fluorophenyl)carbamoyl)-7-fluoro-2,2-dimethyl-2,3-dihydro-1H-inden-1-yl) carbamate], the EC50 was determined as 0.29 µM.
